What was measured:
Assay in all cases: Bliss excess, mean over the matrix (fraction); higher = more synergy
[1] = tested on: COLO-680N (Esophageal Squamous Cell Carcinoma)
How it was run: (§1)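 Cell lines grown in DMEM/F12 or RPMI with 10% FBS were plated in 1536-well plates and held 24 hours at 37°C, 5% CO2 before 72 hours of exposure to two-drug dose matrices, with DMSO typically at 0.2%. CellTiter-Glo 2.0 luminescence gave viability, which was converted to inhibition. Vehicle wells were set to 0 and blank wells to 1. Combination Emax is the second-highest inhibition in the matrix, and Bliss excess is the observed combination effect minus the expected EA + EB − EA·EB, where EA and EB are the single-agent effects.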

[2] = tested on: FADU (Head and Neck Carcinoma)
How it was run: as §1

GB-1 (Glioblastoma) = tested on: GB-1 (Glioblastoma)
How it was run: as §1

[3] = tested on: L-1236 (Hodgkin's Lymphoma)
How it was run: as §1

[4] = tested on: LB996-RCC (Kidney Carcinoma)
How it was run: as §1

[5] = tested on: LK-2 (Squamous Cell Lung Carcinoma)
How it was run: as §1

LN-229 (Glioblastoma) = tested on: LN-229 (Glioblastoma)
How it was run: as §1

[6] = tested on: MFE-280 (Endometrial Carcinoma)
How it was run: as §1

[7] = tested on: NCI-H446 (Small Cell Lung Carcinoma)
How it was run: as §1

[8] = tested on: OPM-2 (Plasma Cell Myeloma)
How it was run: as §1

[9] = tested on: OVMIU (Ovarian Carcinoma)
How it was run: as §1

[10] = tested on: PSN1 (Pancreatic Carcinoma)
How it was run: as §1

[11] = tested on: RERF-GC-1B (Gastric Carcinoma)
How it was run: as §1

SF268 (Low Grade Glioma) = tested on: SF268 (Low Grade Glioma)
How it was run: as §1

[12] = tested on: SHP-77 (Small Cell Lung Carcinoma)
How it was run: as §1

[13] = tested on: SK-PN-DW (Other Solid Carcinomas)
How it was run: as §1

[14] = tested on: TE-8 (Esophageal Squamous Cell Carcinoma)
How it was run: as §1

[15] = tested on: VAL (B-Cell Non-Hodgkin's Lymphoma)
How it was run: as §1

WM278 (Melanoma) = tested on: WM278 (Melanoma)
How it was run: as §1

SMILES | Bliss excess [1] | Bliss excess [2] | Bliss excess (GB-1 (Glioblastoma)) | Bliss excess [3] | Bliss excess [4] | Bliss excess [5] | Bliss excess (LN-229 (Glioblastoma)) | Bliss excess [6] | Bliss excess [7] | Bliss excess [8] | Bliss excess [9] | Bliss excess [10] | Bliss excess [11] | Bliss excess (SF268 (Low Grade Glioma)) | Bliss excess [12] | Bliss excess [13] | Bliss excess [14] | Bliss excess [15] | Bliss excess (WM278 (Melanoma))
CN(C)CCCOc1ccc(-c2ccc3ncc4c(c3c2)n(C2CCOCC2)c(=O)n4C)cn1 [AZD0156] + C=CCn1c(=O)c2cnc(Nc3ccc(N4CCN(C)CC4)cc3)nc2n1-c1cccc(C(C)(C)O)n1 [AZD1775] (first compound max 1 µM, partner max 1 µM) | -0.0252 | 0.0316 | -0.0219 | -0.0514 | -0.0219 | -0.048 | -0.0831 | 0.0145 | -0.0399 | -0.0607 | -0.0113 | -0.0242 | -0.0318 | -0.0665 | -0.0219 | -0.0282 | -0.0104 | -0.0082 | -0.0331
CN(C)CCCOc1ccc(-c2ccc3ncc4c(c3c2)n(C2CCOCC2)c(=O)n4C)cn1 [AZD0156] + CCN(CCO)CCCOc1ccc2c(Nc3cc(CC(=O)Nc4cccc(F)c4)[nH]n3)ncnc2c1 [AZD2811] (first compound max 1 µM, 7x7, partner max 1 µM) | -0.0404 | 0.0626 | -0.034 | -0.0332 | 0.0375 | 0.0201 | -0.0331 | 0.0072 | -0.0587 | 0.041 | -0.0411 | -0.0336 | 0.0292 | -0.0204 | -0.034 | 0.0147 | -0.0073 | -0.0341 | -0.0259
CN(C)CCCOc1ccc(-c2ccc3ncc4c(c3c2)n(C2CCOCC2)c(=O)n4C)cn1 [AZD0156] + C[C@@H]1COCCN1C2=NC(=NC(=C2)C3(CC3)[S@](=N)(=O)C)C4=C5C=CNC5=NC=C4 [AZD6738] (first compound max 1 µM, 7x7, partner max 10 µM) | -0.0311 | 0.0537 | -0.0132 | -0.0315 | 0.0089 | -0.0261 | -0.0412 | -0.0116 | 0.0625 | 0.0261 | -0.0072 | -0.0202 | 0.0249 | -0.0359 | 0.0535 | -0.075 | 0.0087 | -0.0049 | -0.0332
C=CCn1c(=O)c2cnc(Nc3ccc(N4CCN(C)CC4)cc3)nc2n1-c1cccc(C(C)(C)O)n1 [AZD1775] + C[C@@H]1COCCN1C2=NC(=NC(=C2)C3(CC3)[S@](=N)(=O)C)C4=C5C=CNC5=NC=C4 [AZD6738] (first compound max 1 µM, partner max 10 µM) | 0.0196 | 0.0676 |  | -0.032 | 0.011 | -0.0086 | -0.0069 | 0.0536 | 0.0581 | 0.0437 | -0.0635 | -0.0188 | 0.0634 | 0.0337 | 0.0598 | 0.0186 | 0.0126 | 0.0239 | -0.0058
C=CCn1c(=O)c2cnc(Nc3ccc(N4CCN(C)CC4)cc3)nc2n1-c1cccc(C(C)(C)O)n1 [AZD1775] + O=C(c1cc(Cc2n[nH]c(=O)c3ccccc23)ccc1F)N1CCN(C(=O)C2CC2)CC1 [Olaparib] (first compound max 1 µM, partner max 10 µM) | -0.0482 | -0.0303 | -0.0537 | -0.0441 |  | -0.0148 | -0.0851 | -0.0652 | 0.0223 | -0.0561 | -0.0135 | -0.0585 | -0.0124 | -0.0312 | -0.0436 | -0.0694 | -0.03 | -0.0411 | -0.0312
CCN(CCO)CCCOc1ccc2c(Nc3cc(CC(=O)Nc4cccc(F)c4)[nH]n3)ncnc2c1 [AZD2811] + C=CCn1c(=O)c2cnc(Nc3ccc(N4CCN(C)CC4)cc3)nc2n1-c1cccc(C(C)(C)O)n1 [AZD1775] (first compound max 1 µM, partner max 1 µM) | -0.0147 | 0.0047 | 0.0002 | 0.0198 | 0.0623 | -0.0952 | -0.0363 | 0.0727 | 0.015 | -0.0606 | -0.088 | -0.0007 | 0.0335 | -0.0005 | 0.0241 | 0.0431 | -0.016 | -0.087 | -0.0199
CCN(CCO)CCCOc1ccc2c(Nc3cc(CC(=O)Nc4cccc(F)c4)[nH]n3)ncnc2c1 [AZD2811] + C[C@@H]1COCCN1C2=NC(=NC(=C2)C3(CC3)[S@](=N)(=O)C)C4=C5C=CNC5=NC=C4 [AZD6738] (first compound max 1 µM, 7x7, partner max 10 µM) | -0.0737 | -0.0165 | -0.009 | -0.0583 | 0.0304 | -0.064 | -0.0563 | -0.0223 | -0.0514 | -0.0187 | -0.0446 | -0.0366 | 0.0143 | -0.027 | -0.0583 | -0.0306 | -0.0484 | -0.0336 | 0.0062
CCN(CCO)CCCOc1ccc2c(Nc3cc(CC(=O)Nc4cccc(F)c4)[nH]n3)ncnc2c1 [AZD2811] + O=C(c1cc(Cc2n[nH]c(=O)c3ccccc23)ccc1F)N1CCN(C(=O)C2CC2)CC1 [Olaparib] (first compound max 1 µM, 7x7, partner max 10 µM) | -0.0439 | 0.0347 | -0.0218 | -0.0232 | 0.025 | -0.0329 | -0.0223 | 0.0174 | -0.0882 | 0.015 | -0.0509 | -0.0206 | -0.0572 | 0.0105 | -0.0191 | -0.0482 | -0.013 | -0.0246 | -0.0107
C[C@@H]1COCCN1c1cc(C2([S@](C)(=N)=O)CC2)nc(-c2ccnc3[nH]ccc23)n1 [AZD6738] + O=C(c1cc(Cc2n[nH]c(=O)c3ccccc23)ccc1F)N1CCN(C(=O)C2CC2)CC1 [Olaparib] (first compound max 10 µM, 7x7, partner max 10 µM) | 0.0109 | 0.0098 | 0.012 | -0.0033 | 0.0143 | 0.0091 | -0.0713 | 0.0368 | 0.0602 | -0.0339 | -0.0083 | -0.0122 | -0.0439 | 0.0011 | 0.0804 | 0.008 | -0.0218 | -0.0708 | -0.0488
Cc1cc2ncnn2cc1Nc1ncc2c(n1)n(C1CCOCC1)c(=O)n2C [AZD7648] + C=CCn1c(=O)c2cnc(Nc3ccc(N4CCN(C)CC4)cc3)nc2n1-c1cccc(C(C)(C)O)n1 [AZD1775] (first compound max 10 µM, partner max 1 µM) | -0.012 | -0.0112 | 0.0089 | -0.0686 | -0.0252 | -0.0018 | -0.0067 | -0.0406 | -0.0228 | -0.0006 | 0.0747 | -0.0577 | -0.0936 | 0.0296 | -0.0798 | -0.145 | 0.0308 | -0.0919 | -0.027
Cc1cc2ncnn2cc1Nc1ncc2c(n1)n(C1CCOCC1)c(=O)n2C [AZD7648] + CCN(CCO)CCCOc1ccc2c(Nc3cc(CC(=O)Nc4cccc(F)c4)[nH]n3)ncnc2c1 [AZD2811] (first compound max 10 µM, 7x7, partner max 1 µM) | -0.0458 | 0.0177 | -0.0124 | -0.0089 | -0.0098 | -0.0328 | 0.0148 | 0.019 | -0.0157 | 0.0791 | -0.0159 | -0.0218 | 0.0209 | 0.0023 | -0.0244 | 0.105 | 0.0717 | -0.0799 | -0.0081
Cc1cc2ncnn2cc1Nc1ncc2c(n1)n(C1CCOCC1)c(=O)n2C [AZD7648] + CN(C)CCCOc1ccc(-c2ccc3ncc4c(c3c2)n(C2CCOCC2)c(=O)n4C)cn1 [AZD0156] (first compound max 10 µM, 7x7, partner max 1 µM) | -0.0078 | -0.0048 | -0.0089 | 0.0025 | -0.0542 | -0.0036 | -0.0161 | 0.0058 | 0.0418 | -0.0303 | -0.0068 | -0.0413 | -0.0141 | 0.0098 | -0.0017 | 0.0349 | -0.0453 | -0.0921 | -0.0295
Cc1cc2ncnn2cc1Nc1ncc2c(n1)n(C1CCOCC1)c(=O)n2C [AZD7648] + C[C@@H]1COCCN1C2=NC(=NC(=C2)C3(CC3)[S@](=N)(=O)C)C4=C5C=CNC5=NC=C4 [AZD6738] (first compound max 10 µM, 7x7, partner max 10 µM) | 0.0237 | -0.0093 | -0.017 | 0.0434 | -0.0199 | 0.0147 | -0.0085 | 0.0174 | 0.0335 | 0.0254 | 0.0527 | -0.0939 | 0.0094 | 0.0152 | -0.0139 | 0.0154 | -0.0122 | -0.0813 | 0.0112
Cc1cc2ncnn2cc1Nc1ncc2c(n1)n(C1CCOCC1)c(=O)n2C [AZD7648] + O=C(c1cc(Cc2n[nH]c(=O)c3ccccc23)ccc1F)N1CCN(C(=O)C2CC2)CC1 [Olaparib] (first compound max 10 µM, 7x7, partner max 10 µM) | -0.0435 | 0.0107 | -0.0227 | -0.0394 | -0.0152 | -0.0584 | -0.0816 | -0.0011 | -0.0388 | -0.0373 | -0.0945 | -0.0315 | -0.076 | -0.0274 | -0.0585 | 0.0223 | -0.0413 | 0.0295 | -0.0309
COc1cccc2c1C(=O)c1c(O)c3c(c(O)c1C2=O)C[C@@](O)(C(=O)CO)C[C@@H]3O[C@H]1C[C@H](N)[C@H](O)[C@H](C)O1 [Doxorubicin] + Cc1cc2ncnn2cc1Nc1ncc2c(n1)n(C1CCOCC1)c(=O)n2C [AZD7648] (first compound max 1 µM, 7x7, partner max 10 µM) | 0.0063 | 0.126 | 0.0165 | 0.0332 | 0.0561 | 0.0925 | -0.0159 | 0.0107 | 0.0855 | 0.0221 | -0.0193 | 0.0173 | -0.0142 | 0.0462 | 0.0556 | 0.105 | 0.0947 | 0.0974 | 0.0204
CCc1c2c(nc3ccc(O)cc13)-c1cc3c(c(=O)n1C2)COC(=O)[C@]3(O)CC [SN-38] + O=C(c1cc(Cc2n[nH]c(=O)c3ccccc23)ccc1F)N1CCN(C(=O)C2CC2)CC1 [Olaparib] (first compound max 0.3 µM, 7x7, partner max 10 µM) | 0.0012 | 0.086 | 0.0539 | 0.0111 | -0.0651 | 0.128 |  | 0.0167 | 0.0477 | 0.0082 | 0.0409 | 0.0329 |  |  | 0.0235 | 0.0708 | 0.0202 | 0.036 | 0.0486
